How the values were obtained:
native GABAA receptors = assay: GABA-evoked whole-cell currents in acutely isolated TMN neurons (wild type); format: cell-based, mouse
Procedure: (§1) Recordings from histaminergic neurons in male Wistar rat (22–26 day old) or 30–60 day old mouse (SV129, histidine decarboxylase deficient HDC−/− or their wild type littermates) hypothalamic slices were performed as previously described. Slices were obtained between 9 and 11 a.m. In the beginning of whole-cell voltage clamp recordings TMN neurons were identified with the help of DIC microscopy and electrophysiological criteria as previously described. Inhibitory postsynaptic currents (IPSCs) were evoked by local stimulation through a bipolar stainless-steel stimulating electrode (50 µm; WPI, UK). The stimulation of axonal endings coming to TMN from ventrolateral preoptic area (VLPO) was done as described in [22]. […] Individual neurons were separated by vibrodissociation after brief preincubation with papain from the hypothalamic slices of mice or rats and identified as TMN neurons according to their size and shape. Identification was confirmed post hoc with the single-cell RT-PCR (all data presented in the manuscript were obtained from histidine decarboxylase-expressing neurons), [40]. TMN neurons from HDC−/− mice were identified by the expression of peripherin [16]. Whole-cell voltage-clamp recordings from isolated neurons were done with an EPC-9 amplifier and TIDA for Windows (HEKA, Lambrecht, Germany) at room temperature. Membrane potentials were not corrected for liquid junction potential (5.6 mV, calculated with LJPCalc, Barry, 1994). The intracellular solution was composed of (in mM) 140 KCl, 2 MgCl2, 0.5 CaCl2, 5 EGTA, 2 ATP and 10 HEPES (pH 7.2 adjusted with NaOH). A fast perfusion technique was used for application of ligands and modulators of fast ionotropic receptors, [41]. […] EC50 is the ligand concentration producing a half-maximal response, [ligand] is ligand concentration, and n is the Hill slope. Hill coefficients were obtained from the slope of the log/log plot of the dose-response curves. […] Steady-state amplitudes of the responses were used for the construction of dose-response plots if not mentioned otherwise.

[1] = test system: GABAA receptors of HDC−/− TMN neurons; assay: GABA-evoked whole-cell currents in TMN neurons from HDC−/− mice; format: cell-based, mouse
Procedure: as §1

[2] = test system: cultured hypothalamic neurons; assay: Microelectrode array (MEA) recordings of cultured hypothalamic neurons; format: cell-based, mouse; conditions: with GABAA receptor antagonist gabazine
Procedure: Primary dissociated cultures of posterior hypothalamus were prepared from newborn mice according to the protocols previously described, [43]. […] Recordings were done between 11th-21st day after plating. […] Signals from all 60 electrodes were simultaneously sampled at 25 kHz, visualized and stored using the standard software […] provided by Multi Channel Systems. Spike detection and analysis was performed offline with the software […] (RESULT Medizinische […], Germany), which uses the agreement coefficient “Cohen's kappa” (κ) to assess the degree of spike and burst synchrony for selected pairs of electrodes. […] In order to describe the distribution of kappa across the whole MEA, we calculated the mean of all kappa-values obtained for pairs of “active” electrodes. At the beginning of experiments the basal medium was replaced by a magnesium-free HEPES-based recording solution (see above) and measurements were started after a 20 min adaptation phase. Every measurement comprised three recordings - control, test substance and washout (second control) - each two minutes long and separated by an intermediate period of 30 seconds.

GABAA receptor = assay: Voltage dependence of GABAAR block (Woodhull analysis); format: cell-based; conditions: Woodhull fit, Eq. 3; for Kd: read-out: KD(0), dissociation constant at 0 mV
Procedure: Voltage dependence of GABAAR block by UDCA was analysed according to the method of Woodhull, which provides a means of calculating the fraction of the transmembrane field sensed by charged blocking ligand at its acceptor site.

[3] = biological target: T1, α1β2γ2L GABAA receptors (WT) (UniProt P22723+P62813+P63138); assay: Patch-clamp of recombinant wild-type α1β2γ2L GABAAR in HEK293 cells; format: cell-based, rat α1, rat β2, mouse γ2L; conditions: pregnenolone sulphate 10 µM
T1 construct: expressed in transfected cells; host or cells: HEK293
Procedure: (§2) HEK 293 cells were obtained from DSM (Deutsche Sammlung von Mikroorganismen und Zellkulturen GmbH, DSM, Braunschweig). They were grown and maintained according to published standard protocols. Briefly, cells were grown in minimal essential medium supplemented with 10% fetal bovine serum, 100units/ml penicillin and streptomycin and 2 mM L-glutamine and splitted once per week. Semiconfluent cells were transfected on the third day after splitting with the help of Lipofectamine 2000 (Invitrogen), recordings were done 48–72 hrs after transfection.
(§3) The GABAAR subunit cDNAs, generously donated by G.Gisselmann (rat α1, mouse γ2L, rat β1, β2 and human β3 [26]) and J.H. Steinbach (rat α1V256S [28] and rat α1Q241L [44]), were subcloned into pcDNA3 (Invitrogen, Karlsruhe, Germany) and applied in a ratio 1∶1∶1 for the α1βxγ2L receptor and 1∶1 for α1β3 or β3γ2L receptors. […] For each receptor type patch clamp recordings were obtained from at least three separate transfections. Whole-cell patch clamp recordings were done in a similar extracellular solution as for the native cells (see above) except that the concentration of MgCl2 was reduced to 1.2 mM. Intracellular electrodes contained 140 mM CsCl (instead of KCl), pH adjusted with CsOH. The voltage was held at −40 mV.

[4] = biological target: T2, α1V256Sβ2γ2L GABAA receptors (UniProt P22723+P62813+P63138, V283S); assay: Patch-clamp of mutant α1V256Sβ2γ2L GABAAR in HEK293 cells; format: cell-based, rat α1V256S, rat β2, mouse γ2L; conditions: pregnenolone sulphate 10 µM
T2 construct: expressed in transfected cells; host or cells: HEK293
Procedure: as §2, §3

NMDA receptors = assay: NMDA-evoked currents in isolated neurons; format: cell-based; conditions: D-AP5 100 µM
Procedure: Recordings from histaminergic neurons in male Wistar rat (22–26 day old) or 30–60 day old mouse (SV129, histidine decarboxylase deficient HDC−/− or their wild type littermates) hypothalamic slices were performed as previously described. Slices were obtained between 9 and 11 a.m. In the beginning of whole-cell voltage clamp recordings TMN neurons were identified with the help of DIC microscopy and electrophysiological criteria as previously described. Inhibitory postsynaptic currents (IPSCs) were evoked by local stimulation through a bipolar stainless-steel stimulating electrode (50 µm; WPI, UK). The stimulation of axonal endings coming to TMN from ventrolateral preoptic area (VLPO) was done as described in [22]. Visual identification of histaminergic neurons recorded in cell-attached configuration (see [16]) was confirmed by the significant reduction of firing rate by the histamine 3 (H3) receptor agonist R-α-methylhistamine (0.2 µM), which was performed at the end of each experiment. Individual neurons were separated by vibrodissociation after brief preincubation with papain from the hypothalamic slices of mice or rats and identified as TMN neurons according to their size and shape. Identification was confirmed post hoc with the single-cell RT-PCR (all data presented in the manuscript were obtained from histidine decarboxylase-expressing neurons), [40]. TMN neurons from HDC−/− mice were identified by the expression of peripherin [16]. Whole-cell voltage-clamp recordings from isolated neurons were done with an EPC-9 amplifier and TIDA for Windows (HEKA, Lambrecht, Germany) at room temperature. Membrane potentials were not corrected for liquid junction potential (5.6 mV, calculated with LJPCalc, Barry, 1994). The intracellular solution was composed of (in mM) 140 KCl, 2 MgCl2, 0.5 CaCl2, 5 EGTA, 2 ATP and 10 HEPES (pH 7.2 adjusted with NaOH). A fast perfusion technique was used for application of ligands and modulators of fast ionotropic receptors, [41]. […] EC50 is the ligand concentration producing a half-maximal response, [ligand] is ligand concentration, and n is the Hill slope. Hill coefficients were obtained from the slope of the log/log plot of the dose-response curves. […] Steady-state amplitudes of the responses were used for the construction of dose-response plots if not mentioned otherwise.
For the testing of UDCA action at NMDA receptors a maximal 0.2 mM concentration of agonist was used. Recordings were done in Mg^2+ -free solution in the presence of 10 µM of glycine. NMDA-currents were abolished by the NMDA receptor antagonist D-AP5 (100 µM).

[5] = test system: TMN neurons (eIPSCs and sIPSCs); assay: Spontaneous and evoked IPSCs in TMN neurons in brain slices; format: cell-based, rat; conditions: gabazine 10 µM, n = 5
Procedure: as §1

[6] = test system: isolated TMN neurons (sIPSCs); assay: sIPSCs in acutely isolated and cultured neurons; format: cell-based; conditions: gabazine
Procedure: as §1

T1 sequence (P62813 28-455): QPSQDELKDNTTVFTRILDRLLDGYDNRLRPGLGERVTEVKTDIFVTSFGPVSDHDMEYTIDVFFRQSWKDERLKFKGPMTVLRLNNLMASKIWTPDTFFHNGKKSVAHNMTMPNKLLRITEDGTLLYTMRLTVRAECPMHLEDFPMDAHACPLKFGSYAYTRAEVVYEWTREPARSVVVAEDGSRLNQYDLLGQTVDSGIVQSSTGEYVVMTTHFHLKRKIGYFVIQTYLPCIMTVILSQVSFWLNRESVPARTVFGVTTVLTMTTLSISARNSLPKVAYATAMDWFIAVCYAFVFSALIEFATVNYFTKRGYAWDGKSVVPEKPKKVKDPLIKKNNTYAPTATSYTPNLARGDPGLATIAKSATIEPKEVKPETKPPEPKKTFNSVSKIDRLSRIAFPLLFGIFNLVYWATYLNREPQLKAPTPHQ
T1 sequence (P63138 25-474 limits assumed): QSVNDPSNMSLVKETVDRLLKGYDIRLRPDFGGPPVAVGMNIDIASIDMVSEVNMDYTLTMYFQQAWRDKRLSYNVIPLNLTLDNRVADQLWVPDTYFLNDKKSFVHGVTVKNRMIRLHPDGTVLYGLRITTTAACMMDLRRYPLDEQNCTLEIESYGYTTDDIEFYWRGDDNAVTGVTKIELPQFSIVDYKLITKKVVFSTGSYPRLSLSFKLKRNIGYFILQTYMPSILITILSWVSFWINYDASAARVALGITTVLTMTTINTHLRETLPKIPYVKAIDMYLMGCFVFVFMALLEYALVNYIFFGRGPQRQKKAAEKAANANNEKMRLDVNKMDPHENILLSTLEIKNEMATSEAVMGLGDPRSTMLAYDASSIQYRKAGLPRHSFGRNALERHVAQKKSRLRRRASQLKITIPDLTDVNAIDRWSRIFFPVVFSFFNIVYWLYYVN
T1 sequence (P22723 39-474): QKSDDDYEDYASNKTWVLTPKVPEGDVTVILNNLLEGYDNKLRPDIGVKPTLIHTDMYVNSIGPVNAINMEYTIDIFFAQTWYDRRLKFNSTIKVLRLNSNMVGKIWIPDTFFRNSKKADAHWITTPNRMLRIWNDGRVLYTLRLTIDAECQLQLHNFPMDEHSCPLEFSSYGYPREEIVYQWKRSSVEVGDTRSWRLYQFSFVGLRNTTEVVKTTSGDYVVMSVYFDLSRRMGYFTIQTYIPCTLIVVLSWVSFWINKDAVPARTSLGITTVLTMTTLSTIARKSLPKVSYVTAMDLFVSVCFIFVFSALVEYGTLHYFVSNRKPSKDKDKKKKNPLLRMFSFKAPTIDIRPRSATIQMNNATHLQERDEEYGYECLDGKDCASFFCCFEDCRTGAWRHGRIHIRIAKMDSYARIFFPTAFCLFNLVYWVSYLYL
T2 sequence (P62813 28-455 V283S): as the sequence (P62813 28-455) above, with V256S counted along it
T2 sequence (P63138 25-474 limits assumed): as the sequence (P63138 25-474 limits assumed) above
T2 sequence (P22723 39-474): as the sequence (P22723 39-474) above

Compound: CC1CC(C)(c2ccccc2)OC(C)O1 (centres unmarked) [vertacetal]
- EC50 (native GABAA receptors; wild type neurons, n = 5, read-out: EC50 of GABAAR modulation by vertacetal): 13.4 ± 2.6 µM
- EC50 ([1]; HDC−/− neurons, n = 5, read-out: EC50 of GABAAR modulation by vertacetal): 9.2 ± 3 µM

Compound: C[C@H](CCC(=O)NCCS(=O)(=O)O)[C@H]1CC[C@H]2[C@@H]3[C@@H](O)C[C@@H]4C[C@H](O)CC[C@]4(C)[C@H]3CC[C@]12C [TUDC, tauroursodeoxycholate]
- effect on synchronization in the presence of gabazine [2]: blanks the effect

Compound: C[C@H](CCC(=O)O)[C@H]1CC[C@H]2[C@@H]3[C@H](O)C[C@@H]4C[C@H](O)CC[C@]4(C)[C@H]3CC[C@]12C [CDOC, chenodeoxycholate]
- fraction of the transmembrane field sensed at the acceptor site (f) (GABAA receptor): 0.33±0.02
- Kd (GABAA receptor): 42 µM

Compound: Cc1ccc(-c2nc3ccc(C)cn3c2CC(=O)N(C)C)cc1 [zolpidem]
- modulation of GABAAR, HDC+/+ versus HDC−/− TMN neurons [1]: No difference

Compound: CC(=O)C1CCC2C3CC=C4CC(OS(=O)(=O)O)CCC4(C)C3CCC12C (centres unmarked) [Pregnenolone sulphate, pregnenolone sulphate]
- steady-state amplitude of maximal GABA-currents [3]: 11±3 % of control
- steady-state amplitude of maximal GABA-currents [4]: 82±6 % of control

Compound: C[C@H](CCC(=O)O)[C@H]1CC[C@H]2[C@@H]3C(=O)C[C@@H]4CC(=O)CC[C@]4(C)[C@H]3CC(=O)[C@]12C [dehydrocholate]
- fraction of the transmembrane field sensed at the acceptor site (f) (GABAA receptor): 0.33±0.03
- Kd (GABAA receptor): 1400 µM

Compound: C[C@H](CCC(=O)O)[C@H]1CC[C@H]2[C@@H]3[C@H](O)C[C@@H]4C[C@H](O)CC[C@]4(C)[C@H]3C[C@H](O)[C@]12C [cholate]
- fraction of the transmembrane field sensed at the acceptor site (f) (GABAA receptor): 0.3±0.02
- Kd (GABAA receptor): 710 µM

Compound: NC(CCCP(=O)(O)O)C(=O)O [D-AP5]
- NMDA-currents (NMDA receptors): abolished

Compound: COc1ccc(-c2ccc(=N)n(CCCC(=O)O)n2)cc1 [Gabazine, gabazine]
- eIPSCs and sIPSCs [5]: abolished
- GABAergic sIPSCs in isolated TMN neuron [6]: abolished

Compound: picrotoxin
- use dependence of block of GABA currents (native GABAA receptors): use-dependent block
- reversibility of block of GABA currents (native GABAA receptors; GABA 10 µM, 1 s): not fully reversible

Reference: PMC3412845, “Waking Action of Ursodeoxycholic Acid (UDCA) Involves Histamine and GABAA Receptor Block” (PLoS ONE, 2012)
